{"source": "ChEMBL document CHEMBL5523691", "about": "“SAR study of N'-(Salicylidene)heteroarenecarbohydrazides as promising antifungal agents” (Bioorg Med Chem, 2024)", "key": {"[1]": {"test": "Cytotoxicity against human A549 cells assessed as cell killing measured after 24 to 48 hrs by MTT assay", "format": "toxicity, cell-based", "conditions": "time 24-48 hrs, read-out: LD50 (the source's name)"}, "[2]": {"system": "Cryptococcus neoformans", "test": "Fungicidal activity against wild type Cryptococcus neoformans H99 assessed as minimum concentration required to kill fungus measured after 72 hrs by time-kill assay", "format": "functional"}, "[3]": {"system": "Cryptococcus neoformans", "test": "Antifungal activity against wild type Cryptococcus neoformans H99 assessed as inhibition of fungal growth incubated for 24 to 72 hrs by optical density based analysis", "format": "functional", "conditions": "time 24-72 hrs"}, "[4]": {"test": "Selectivity index, ratio of LD50 for human A549 cells to MIC80 for Cryptococcus neoformans H99", "format": "toxicity", "conditions": "read-out: Selectivity Index"}, "[5]": {"system": "Candida albicans", "test": "Antifungal activity against Candida albicans assessed as inhibition of fungal growth incubated for 24 to 72 hrs by optical density based analysis", "format": "functional", "conditions": "time 24-72 hrs"}, "[6]": {"system": "Cryptococcus neoformans", "test": "Synergistic antifungal activity against wild type Cryptococcus neoformans H99 assessed as fractional inhibitory concentration index in presence of caspofungin", "format": "functional"}, "[7]": {"system": "Cryptococcus neoformans", "test": "Antifungal activity against wild type Cryptococcus neoformans H99 assessed as inhibition of fungal growth in presence of amphotericin B", "format": "functional"}, "[8]": {"system": "Aspergillus fumigatus", "test": "Antifungal activity against Aspergillus fumigatus assessed as inhibition of fungal growth incubated for 24 to 72 hrs by optical density based analysis", "format": "functional", "conditions": "time 24-72 hrs"}, "[9]": {"system": "Cryptococcus neoformans", "test": "Antagonistic antifungal activity against wild type Cryptococcus neoformans H99 in presence of amphotericin B", "format": "functional, organism-based"}, "[10]": {"system": "Cryptococcus neoformans", "test": "Antagonistic antifungal activity against wild type Cryptococcus neoformans H99 in presence of fluconazole", "format": "functional, organism-based"}, "[11]": {"system": "Cryptococcus neoformans", "test": "Synergistic antifungal activity against wild type Cryptococcus neoformans H99 assessed as fractional inhibitory concentration index in presence of amphotericin B", "format": "functional"}, "[12]": {"system": "Cryptococcus neoformans", "test": "Antagonistic antifungal activity against wild type Cryptococcus neoformans H99 in presence of caspofungin", "format": "functional, organism-based"}, "[13]": {"system": "Cryptococcus neoformans", "test": "Antifungal activity against wild type Cryptococcus neoformans H99 assessed as fractional inhibitory concentration index in presence of fluconazole", "format": "functional"}, "[14]": {"system": "Cryptococcus neoformans", "test": "Fungicidal activity against wild type Cryptococcus neoformans H99 assessed as minimum concentration required to kill fungus measured after 48 hrs by time-kill assay", "format": "functional"}, "[15]": {"system": "Cryptococcus neoformans", "test": "Antifungal activity against wild type Cryptococcus neoformans H99 assessed as inhibition of fungal growth in presence of fluconazole", "format": "functional"}, "[16]": {"system": "Cryptococcus neoformans", "test": "Antifungal activity against wild type Cryptococcus neoformans H99 assessed as inhibition of fungal growth in presence of caspofungin", "format": "functional"}, "[17]": {"system": "Cryptococcus neoformans", "test": "Synergistic antifungal activity against wild type Cryptococcus neoformans H99 assessed as fractional inhibitory concentration index in presence of fluconazole", "format": "functional"}, "[18]": {"system": "Cryptococcus neoformans", "test": "Fungicidal activity against wild type Cryptococcus neoformans H99 assessed as minimum concentration required to kill fungus measured after 24 hrs by time-kill assay", "format": "functional"}, "[19]": {"system": "Cryptococcus neoformans", "test": "Antifungal activity against wild type Cryptococcus neoformans H99 assessed as fractional inhibitory concentration index in presence of amphotericin B", "format": "functional"}, "[20]": {"system": "Cryptococcus neoformans", "test": "Fungicidal activity against wild type Cryptococcus neoformans H99 assessed as minimum concentration required to kill fungus measured after 96 hrs by time-kill assay", "format": "functional"}}, "note": "Active and inactive are the calls of the source. No cut-off for these calls is given here."}
{"molecule": "O=C(N/N=C/c1ccc(Br)cc1O)c1ccc(C(F)(F)F)o1", "values": [{"measurement": "CC50", "setting": "[1]", "result": 4, "unit": "µg/mL"}, {"measurement": "MFC100", "setting": "[2]", "result": 4, "unit": "µg/mL"}, {"measurement": "MIC80", "setting": "[3]", "result": 1, "unit": "µg/mL"}, {"measurement": "selectivity ratio", "setting": "[4]", "result": 4}]}
{"molecule": "O=C(N/N=C/c1cc(Br)ccc1O)c1csc(Br)c1", "values": [{"measurement": "MIC80", "setting": "[5]", "result": 0.125, "unit": "µg/mL"}, {"measurement": "fractional inhibitory concentration index (FICI)", "setting": "[6]", "result": 0.14}, {"measurement": "CC50", "setting": "[1]", "result": "> 32", "unit": "µg/mL"}, {"measurement": "MIC80", "setting": "[7]", "result": 0.001, "unit": "µg/mL"}, {"measurement": "MIC80", "setting": "[8]", "result": 1, "unit": "µg/mL"}, {"measurement": "Activity", "setting": "[9]", "result": "inactive"}, {"measurement": "Activity", "setting": "[10]", "result": "inactive"}, {"measurement": "fractional inhibitory concentration index (FICI)", "setting": "[11]", "result": 0.53}, {"measurement": "Activity", "setting": "[12]", "result": "inactive"}, {"measurement": "MIC80", "setting": "[3]", "result": 0.014, "unit": "µg/mL"}, {"measurement": "selectivity ratio", "setting": "[4]", "result": "> 1070"}, {"measurement": "fractional inhibitory concentration index (FICI)", "setting": "[13]", "result": 1.1}, {"measurement": "MFC100", "setting": "[14]", "result": 0.06, "unit": "µg/mL"}, {"measurement": "MIC80", "setting": "[15]", "result": 0.002, "unit": "µg/mL"}, {"measurement": "MIC80", "setting": "[16]", "result": 0.015, "unit": "µg/mL"}]}
{"molecule": "O=C(N/N=C/c1cc(Br)ccc1O)c1ccc(Br)o1", "values": [{"measurement": "MIC80", "setting": "[5]", "result": 1, "unit": "µg/mL"}, {"measurement": "fractional inhibitory concentration index (FICI)", "setting": "[6]", "result": 0.75}, {"measurement": "CC50", "setting": "[1]", "result": "> 32", "unit": "µg/mL"}, {"measurement": "MIC80", "setting": "[7]", "result": 0.015, "unit": "µg/mL"}, {"measurement": "MIC80", "setting": "[8]", "result": 0.25, "unit": "µg/mL"}, {"measurement": "Activity", "setting": "[9]", "result": "inactive"}, {"measurement": "Activity", "setting": "[10]", "result": "inactive"}, {"measurement": "Activity", "setting": "[12]", "result": "inactive"}, {"measurement": "MIC80", "setting": "[3]", "result": 0.12, "unit": "µg/mL"}, {"measurement": "selectivity ratio", "setting": "[4]", "result": "> 533"}, {"measurement": "fractional inhibitory concentration index (FICI)", "setting": "[17]", "result": 0.56}, {"measurement": "MFC100", "setting": "[18]", "result": 0.25, "unit": "µg/mL"}, {"measurement": "MIC80", "setting": "[15]", "result": 0.06, "unit": "µg/mL"}, {"measurement": "MIC80", "setting": "[16]", "result": 0.06, "unit": "µg/mL"}, {"measurement": "fractional inhibitory concentration index (FICI)", "setting": "[19]", "result": 1.12}]}
{"molecule": "O=C(N/N=C/c1ccc(Br)cc1O)c1cc(Br)co1", "values": [{"measurement": "MFC100", "setting": "[20]", "result": 2, "unit": "µg/mL"}, {"measurement": "CC50", "setting": "[1]", "result": 16, "unit": "µg/mL"}, {"measurement": "MIC80", "setting": "[3]", "result": 0.5, "unit": "µg/mL"}, {"measurement": "selectivity ratio", "setting": "[4]", "result": 32}]}
{"molecule": "O=C(N/N=C/c1ccc(Br)cc1O)c1ccc(Br)o1", "values": [{"measurement": "MIC80", "setting": "[5]", "result": 0.5, "unit": "µg/mL"}, {"measurement": "fractional inhibitory concentration index (FICI)", "setting": "[6]", "result": 0.37}, {"measurement": "CC50", "setting": "[1]", "result": "> 32", "unit": "µg/mL"}, {"measurement": "MIC80", "setting": "[7]", "result": 0.015, "unit": "µg/mL"}, {"measurement": "MIC80", "setting": "[8]", "result": 0.5, "unit": "µg/mL"}, {"measurement": "Activity", "setting": "[9]", "result": "inactive"}, {"measurement": "Activity", "setting": "[10]", "result": "inactive"}, {"measurement": "fractional inhibitory concentration index (FICI)", "setting": "[11]", "result": 0.53}, {"measurement": "Activity", "setting": "[12]", "result": "inactive"}, {"measurement": "MIC80", "setting": "[3]", "result": 0.12, "unit": "µg/mL"}, {"measurement": "selectivity ratio", "setting": "[4]", "result": "> 533"}, {"measurement": "fractional inhibitory concentration index (FICI)", "setting": "[17]", "result": 0.25}, {"measurement": "MFC100", "setting": "[18]", "result": 0.5, "unit": "µg/mL"}, {"measurement": "MIC80", "setting": "[15]", "result": 0.015, "unit": "µg/mL"}, {"measurement": "MIC80", "setting": "[16]", "result": 0.015, "unit": "µg/mL"}]}
